In PubChem BioAssay (NCI):
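GI50: concentration for 50% inhibition of growth. TGI: total growth inhibition.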

Key:
Experiment in all cases: inhibition of tumour cell growth, NCI panel, 384-well format
786-0 renal = system: 786-0 renal
A498 renal = system: A498 renal
A549 NSCLC = system: A549 NSCLC
ACHN renal = system: ACHN renal
BT-549 breast = system: BT-549 breast
CAKI-1 renal = system: CAKI-1 renal
COLO 205 colon = system: COLO 205 colon
DU-145 prostate = system: DU-145 prostate
EKVX NSCLC = system: EKVX NSCLC
HCT-116 colon = system: HCT-116 colon
HCT-15 colon = system: HCT-15 colon
HL-60(TB) leukemia = system: HL-60(TB) leukemia
HOP-62 NSCLC = system: HOP-62 NSCLC
HOP-92 NSCLC = system: HOP-92 NSCLC
HS 578T breast = system: HS 578T breast
HT29 colon = system: HT29 colon
IGROV1 ovarian = system: IGROV1 ovarian
K-562 leukemia = system: K-562 leukemia
KM12 colon = system: KM12 colon
M14 melanoma = system: M14 melanoma
MALME-3M melanoma = system: MALME-3M melanoma
MCF7 breast = system: MCF7 breast
MDA-MB-231 breast = system: MDA-MB-231 breast
MDA-MB-435 melanoma = system: MDA-MB-435 melanoma
MDA-MB-468 breast = system: MDA-MB-468 breast
MOLT-4 leukemia = system: MOLT-4 leukemia
NCI-H226 lung = system: NCI-H226 lung
NCI-H23 lung = system: NCI-H23 lung
NCI-H322M lung = system: NCI-H322M lung
NCI-H460 NSCLC = system: NCI-H460 NSCLC
NCI-H522 lung = system: NCI-H522 lung
OVCAR-3 ovarian = system: OVCAR-3 ovarian
OVCAR-4 ovarian = system: OVCAR-4 ovarian
OVCAR-5 ovarian = system: OVCAR-5 ovarian
OVCAR-8 ovarian = system: OVCAR-8 ovarian
PC-3 prostate = system: PC-3 prostate
RXF 393 renal = system: RXF 393 renal
SF-268 CNS = system: SF-268 CNS
SF-295 CNS = system: SF-295 CNS
SF-539 CNS = system: SF-539 CNS
SK-MEL-2 melanoma = system: SK-MEL-2 melanoma
SK-MEL-28 melanoma = system: SK-MEL-28 melanoma
SK-MEL-5 melanoma = system: SK-MEL-5 melanoma
SK-OV-3 ovarian = system: SK-OV-3 ovarian
SN12C renal = system: SN12C renal
SNB-19 CNS = system: SNB-19 CNS
SNB-75 CNS = system: SNB-75 CNS
SR leukemia = system: SR leukemia
SW-620 colon = system: SW-620 colon
T-47D breast = system: T-47D breast
TK-10 renal = system: TK-10 renal
U251 glioblastoma = system: U251 glioblastoma
UACC-257 melanoma = system: UACC-257 melanoma
UACC-62 melanoma = system: UACC-62 melanoma
UO-31 renal = system: UO-31 renal

## COC1(C(=O)N[C@@H](C)c2ccc(-n3cc(F)cn3)nc2)CCC(c2nc(C)cc(Nc3cc(C)[nH]n3)n2)CC1 (stereo not given in full)
786-0 renal
  GI50: 1.82 µM
  TGI: 6.42 µM
A498 renal
  GI50: 1.83 µM
  TGI: 4.4 µM
A549 NSCLC
  GI50: 2.41 µM
  TGI: 12 µM
ACHN renal
  GI50: 0.896 µM
  TGI: 4.45 µM
BT-549 breast
  GI50: 0.813 µM
  TGI: 2.56 µM
CAKI-1 renal
  GI50: 1.28 µM
  TGI: 2.69 µM
COLO 205 colon
  GI50: 13.8 µM
  TGI: 26.9 µM
DU-145 prostate
  GI50: 1.72 µM
  TGI: 4.04 µM
EKVX NSCLC
  GI50: 0.545 µM
  TGI: 2.29 µM
HCT-116 colon
  GI50: 4.04 µM
  TGI: 17.3 µM
HCT-15 colon
  GI50: 4.58 µM
  TGI: 17.2 µM
HL-60(TB) leukemia
  GI50: 5.4 µM
  TGI: 18.5 µM
HOP-62 NSCLC
  GI50: 1.46 µM
  TGI: 6.13 µM
HOP-92 NSCLC
  GI50: 0.691 µM
  TGI: 2.67 µM
HS 578T breast
  GI50: 0.253 µM
  TGI: 1.58 µM
HT29 colon
  GI50: 4.94 µM
  TGI: 19.1 µM
IGROV1 ovarian
  GI50: 0.304 µM
  TGI: 1.37 µM
K-562 leukemia
  GI50: 1.7 µM
  TGI: 11.6 µM
KM12 colon
  GI50: 5.12 µM
  TGI: 18.3 µM
M14 melanoma
  GI50: 11.3 µM
  TGI: 23.4 µM
MALME-3M melanoma
  GI50: 11.3 µM
  TGI: 23.6 µM
MCF7 breast
  GI50: 2 µM
  TGI: 14.4 µM
MDA-MB-231 breast
  GI50: 2.6 µM
  TGI: 14 µM
MDA-MB-435 melanoma
  GI50: 11.7 µM
  TGI: 24.1 µM
MDA-MB-468 breast
  GI50: 1.74 µM
  TGI: 4.8 µM
MOLT-4 leukemia
  GI50: 1.84 µM
  TGI: 5.62 µM
NCI-H226 lung
  GI50: 0.246 µM
  TGI: 2.08 µM
NCI-H23 lung
  GI50: 0.629 µM
  TGI: 10.6 µM
NCI-H322M lung
  GI50: 2.12 µM
  TGI: 11.1 µM
NCI-H460 NSCLC
  GI50: 0.0527 µM
  TGI: 13.7 µM
NCI-H522 lung
  GI50: 1.19 µM
  TGI: 3.11 µM
OVCAR-3 ovarian
  GI50: 1.67 µM
  TGI: 12.8 µM
OVCAR-4 ovarian
  GI50: 2.12 µM
  TGI: 17.8 µM
OVCAR-5 ovarian
  GI50: 2.31 µM
  TGI: 13.9 µM
OVCAR-8 ovarian
  GI50: 3.35 µM
  TGI: 12.9 µM
PC-3 prostate
  GI50: 3.42 µM
  TGI: 15.7 µM
RXF 393 renal
  GI50: 0.138 µM
  TGI: 0.671 µM
SF-268 CNS
  GI50: 1.38 µM
  TGI: 3.69 µM
SF-295 CNS
  GI50: 1.39 µM
  TGI: 4.21 µM
SF-539 CNS
  GI50: 0.226 µM
  TGI: 1.12 µM
SK-MEL-2 melanoma
  GI50: 11 µM
  TGI: 23.1 µM
SK-MEL-28 melanoma
  GI50: 12 µM
  TGI: 24.5 µM
SK-MEL-5 melanoma
  GI50: 2.3 µM
  TGI: 11.2 µM
SK-OV-3 ovarian
  GI50: 0.605 µM
  TGI: 2.64 µM
SN12C renal
  GI50: 0.493 µM
  TGI: 10 µM
SNB-19 CNS
  GI50: 3.69 µM
  TGI: 18.1 µM
SNB-75 CNS
  GI50: 0.285 µM
  TGI: 1.32 µM
SR leukemia
  GI50: 2.13 µM
  TGI: 5.27 µM
SW-620 colon
  GI50: 2.58 µM
  TGI: 17 µM
T-47D breast
  GI50: 2.28 µM
  TGI: 10.7 µM
TK-10 renal
  GI50: 1.4 µM
  TGI: 3.93 µM
U251 glioblastoma
  GI50: 1.54 µM
  TGI: 12.3 µM
UACC-257 melanoma
  GI50: 15.7 µM
  TGI: 29.3 µM
UACC-62 melanoma
  GI50: 5.55 µM
  TGI: 18.5 µM
UO-31 renal
  GI50: 1.14 µM
  TGI: 2.78 µM
